System: 494315-158-R-J1-PDC complex spheroid growth, percent test/control
Experiment: Anticancer human tumor 494315-158-R-J1-PDC patient-derived soft tissue sarcoma cell line growth inhibition [Asc]
Conditions: for IC50: curve of first compound; for viability, T/C: stronger effect = lower value
Method: Multicellular complex tumor spheroid response to apoptosis pathway targeting inhibitors Alrizomadlin, Pelcitoclax, and Dasminapant in combination with a variety of drugs and investigational agents in selected tumor cell lines
The MDM2 inhibitor alrizomadlin, the Bcl-2/Bcl-xL inhibitor pelcitoclax, and the IAPs inhibitor dasminapant were evaluated both individually and in combination with standard of care and investigational anticancer small molecules within a complex spheroid model of solid tumors. . Complex spheroids include a stromal component modeled by human endothelial cells (HUVEC) and fibroblasts modeled by human mesenchymal stem cells (MSCs). The concentration ranges selected for each drug and investigational agent were based upon clinically achievable concentrations if the clinical Cmax of the agent was known.
Compounds. The drugs and investigational agents: alrizomadlin (APG-115; NSC831270), pelcitoclax (APG-1252; NSC835773), dasminapant (APG-1387;NSC834197), TAK-243 (NSC785004), copanlisib (NSC809693), olaparib (NSC753686), talazoparib (NSC767125), cobimetinib (NSC 768068), eltanexor (KPT-8602, NSC 794443), abemaciclib (NSC 768073), sotorasib (NSC818433), adagrasib (NSC 831453), MRTX-1133 (NSC 836407), Iadademestat (ORY1001, NSC 806812), and RMC-4630 (NSC839698), were obtained from the NCI Developmental Therapeutics Program Chemical Repository. The FDA-approved anticancer drug set is available from the Developmental Therapeutics Program at https://dtp.cancer.gov/organization/dscb/obtaining/available plates.htm. […] The stock solutions were prepared in dimethyl sulfoxide (DMSO, Sigma-Aldrich, St. Louis, MO, cat. D2650) at 800-fold the tested concentration and stored at -70 degrees C prior to their use. All drugs and investigational agents were tested over a range starting from a high concentration at or near the clinical Cmax and decreasing in half-log increments. If the clinical Cmax for an agent had not been determined, the highest concentration tested was 10 microM.
The patient-derived cancer (PDC) cell lines include five colon adenocarcinomas: 186277-243-T-J2-PDC, 616215-338-R-J1-PDC, 439559-082-T-J2-PDC, 463943-066-T-J2-PDC, and 519858-162-T-J1-PDC; three pancreatic carcinomas: 323965-272-R-J2-PDC, 521955-158-R6-J3-PDC, and 521955-158-R2-J5-PDC; two uterine sarcomas: 327498-152-R-J2-PDC and 993429-296-R-J1-PDC; two rhabdomyosarcomas: 755483-174-R-J1-PDC and 772245-204-R-J1-PDC; two soft tissue sarcomas: 126254-015-R-J1-PDC and 494315-158-R-J1-PDC; two malignant fibrous histiocytomas: 317291-083-R-J1-PDC and 596521-263-R-J1-PDC; two breast carcinomas: 171881-019-R-J1-PDC and 885512-296-R-J2-PDC; and one ovarian carcinoma: 6556581-035-R-J-PDC were obtained from the NCI PDMR, (https://pdmr.cancer.gov). The established cell lines HSSY-2 synovial sarcoma (RRID:CVCL 8719), SYO-1 synovial sarcoma (RRID:CVCL_7146), MPNST malignant peripheral neural sheath tumor were obtained from the Sloan Kettering Institute. The following established cell lines were purchased from the American Type Culture Collection (ATCC, Manassas, VA), Sor the received from the NCI repository:, PANC-1 pancreatic carcinoma (CRL-1469, RRID:CVCL_0480), OVCAR-5 ovarian carcinoma (RRID:CVCL_1628), OVCAR-8 ovarian carcinoma (RRID:CVCL_1629), , MCF-7 breast carcinoma (CRL-12584, RRID:CVCL_0031), MDA-MB-231 breast carcinoma (CRL-12532, RRID:CVCL_0062), NCI-H1876 small cell lung carcinoma (CRL-5902, RRID:CVCL_1503), NCI-H510A small cell lung carcinoma (HTB-184, RRID:CVCL_1565), NCI-H1417 (CRL-5869, RRID:CVCL_1469), and NCI-H196 small cell lung carcinoma (CRL-5823, RRID:CVCL_1509). Dr. Peter Houghton (Greehey Children's Cancer Research Institute, University of Texas Health Science Center, San Antonio, TX) provided Rh-18 rhabdomyosarcoma (RRID:CVCL_1659). Pooled donor human umbilical vein endothelial cells (HUVEC, Lonza, cat. CC-2519) and human mesenchymal stem cells (hMSC, Lonza, cat. PT-2501) were purchased from Lonza (Walkersville, MD).
Cell Culture. […]

[1] = second compound 0.03 µM, first compound 0.000316 µM
[2] = second compound 0.03 µM, first compound 0.001 µM
[3] = second compound 0.03 µM, first compound 0.00316 µM
[4] = second compound 0.03 µM, first compound 0.01 µM
[5] = second compound 0.03 µM, first compound 0.0316 µM
[6] = second compound 0.03 µM, first compound 0.1 µM
[7] = second compound 0.0949 µM, first compound 0.000316 µM
[8] = second compound 0.0949 µM, first compound 0.001 µM
[9] = second compound 0.0949 µM, first compound 0.00316 µM
[10] = second compound 0.0949 µM, first compound 0.01 µM
[11] = second compound 0.0949 µM, first compound 0.0316 µM
[12] = second compound 0.0949 µM, first compound 0.1 µM
[13] = second compound 0.3 µM, first compound 0.000316 µM
[14] = second compound 0.3 µM, first compound 0.001 µM
[15] = second compound 0.3 µM, first compound 0.00316 µM
[16] = second compound 0.3 µM, first compound 0.01 µM
[17] = second compound 0.3 µM, first compound 0.0316 µM
[18] = second compound 0.3 µM, first compound 0.1 µM
[19] = second compound 0.949 µM, first compound 0.000316 µM
[20] = second compound 0.949 µM, first compound 0.001 µM
[21] = second compound 0.949 µM, first compound 0.00316 µM
[22] = second compound 0.949 µM, first compound 0.01 µM
[23] = second compound 0.949 µM, first compound 0.0316 µM
[24] = second compound 0.949 µM, first compound 0.1 µM
[25] = second compound 3 µM, first compound 0.000316 µM
[26] = second compound 3 µM, first compound 0.001 µM
[27] = second compound 3 µM, first compound 0.00316 µM
[28] = second compound 3 µM, first compound 0.01 µM
[29] = second compound 3 µM, first compound 0.0316 µM
[30] = second compound 3 µM, first compound 0.1 µM
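Also: compound exposure lasted seven days after spheroids formed for three days.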

| SMILES | IC50 (second compound 0.03 µM) | IC50 (second compound 0.0949 µM) | IC50 (second compound 0.3 µM) | IC50 (second compound 0.949 µM) | IC50 (second compound 3 µM) | viability, T/C [1] | viability, T/C [2] | viability, T/C [3] | viability, T/C [4] | viability, T/C [5] | viability, T/C [6] | viability, T/C [7] | viability, T/C [8] | viability, T/C [9] | viability, T/C [10] | viability, T/C [11] | viability, T/C [12] | viability, T/C [13] | viability, T/C [14] | viability, T/C [15] | further results |
| --- | --- | --- | --- | --- | --- | --- | --- | --- | --- | --- | --- | --- | --- | --- | --- | --- | --- | --- | --- | --- | --- |
| Cn1ncnc1[C@H]1c2n[nH]c(=O)c3cc(F)cc(c23)N[C@@H]1c1ccc(F)cc1 + CCN1C(C(=O)NC23CCC(C(=O)O)(CC2)CC3)C(c2cccc(Cl)c2F)C2(C(=O)Nc3cc(Cl)ccc32)C12CCCCC2 | > 100 nM | > 100 nM | > 100 nM | > 100 nM | > 100 nM | 104% | 101% | 86.8% | 78.9% | 76.3% | 57% | 108% | 93.4% | 87.1% | 66.3% | 64.6% | 58.2% | 81.8% | 94.3% | 75.5% | viability, T/C [16]: 76.2%; viability, T/C [17]: 62.9%; viability, T/C [18]: 76.3%; viability, T/C [19]: 95.3%; viability, T/C [20]: 80.1%; viability, T/C [21]: 78.4%; viability, T/C [22]: 64%; viability, T/C [23]: 73.5%; viability, T/C [24]: 72.1%; viability, T/C [25]: 105%; viability, T/C [26]: 92.3%; viability, T/C [27]: 67.9%; viability, T/C [28]: 70.9%; viability, T/C [29]: 54.7%; viability, T/C [30]: 74.2% |
| NC1CCC(NC2CC2c2ccccc2)CC1 (stereo not given) + CCN1C(C(=O)NC23CCC(C(=O)O)(CC2)CC3)C(c2cccc(Cl)c2F)C2(C(=O)Nc3cc(Cl)ccc32)C12CCCCC2 | > 100 nM | > 100 nM | > 100 nM | > 100 nM | > 100 nM | 95.8% | 95.3% | 89.8% | 85.2% | 112% | 97.9% | 99.7% | 93.4% | 99% | 104% | 92.5% | 95% | 96.6% | 91.3% | 94.7% | viability, T/C [16]: 88.7%; viability, T/C [17]: 96.5%; viability, T/C [18]: 82.2%; viability, T/C [19]: 91%; viability, T/C [20]: 91.5%; viability, T/C [21]: 85.7%; viability, T/C [22]: 87.5%; viability, T/C [23]: 90.9%; viability, T/C [24]: 92.1%; viability, T/C [25]: 98.3%; viability, T/C [26]: 98%; viability, T/C [27]: 93.7%; viability, T/C [28]: 91%; viability, T/C [29]: 83.6%; viability, T/C [30]: 96.6% |

From PubChem BioAssay AID1963420 (Molecular Pharmacology Branch, DTP, NCI, 2024)
